According to US20070028400A1, “Skin and/or hair treatment agent containing tetrasubstituted cyclohexene compounds” (priority 2003, published 2007):

System: primary normal human melanocytes
Experiment: Melanogenesis assay (C14-tyrosine incorporation), 3 days incubation
Type: cell-based
Details: measured as C14-tyrosine incorporation, n=3
Method: By way of example, the test for the compound acetyl-retinyliminoethanol is given.
A melanogenesis assay was carried out after incubation for 3 days of primary normal human melanocytes with test substance compared to control. The numbers given in the table indicate the melanogenesis rates based on the untreated control (=100%) (measured as C14-tyrosine incorporation).

CC(=O)OCC/N=C/C=C(C)/C=C/C=C(C)/C=C/C1=C(C)CCCC1(C)C [acetyl-retinyliminoethanol, 2-{[(1E,2E,4E,6E,8E)-3,7-dimethyl-9-(2,6,6-trimethylcyclohex-1-en-1-yl)nona-2,4,6,8-tetraen-1-ylidene]amino}ethyl acetate]
melanogenesis rate based on the untreated control (=100%), Average (0.1 μg/ml test substance): 117% | melanogenesis rate based on the untreated control (=100%), Average (1 μg/ml test substance): 253%
